Results reported in patent US4180588A, “Immunosuppressant” (Mitsubishi Chemical Industries, Ltd., priority 1977, dated 1979).

Columns and labels:
[1] = test system: skin allograft; assay: Prolongation of the skin allograft in rat (Fisher to Wister/MK); type: in vivo; conditions: 25 mg/kg intraperitoneally everyday from day -7 until rejection; controls 9.0±1.6 days
Experimental: Prolongation of the skin allograft in rat Wister/MK rats received skin allografts from Fisher rats on day 0.
Recipient rats in the treatment group were administered intraperitoneally 25 mg/kg of N-(p-hydroxyphenyl)-L-glutamine dissolved in a phosphate buffer everyday from day - 7 until the day on which the rejection was observed. Rats treated with the compound rejected their grafts in 15.0±1.7 days, while controls rejected in 9.0±1.6 days.

[2] = test system: murine spleen cells; assay: Cytotoxic effect on the murine spleen cells, trypane-blue dye exclusion; type: cell-based; conditions: within the range of the concentration tested
Experimental: (§1) Cytotoxic effect on the murine spleen cells 1×10^6 /ml murine spleen cells in RPMI-1640 medium supplemented with 5% fetal calf serum were incubated with a varied concentration of N-(p-hydroxyphenyl)-L-glutamine for 48 hours at 37° C. And then the viability of the cells was determined by the trypane-blue dye exclusion test.

[3] = as above; type: cell-based; conditions: mouse, spleen cells, 48 hours, 86 at 0
Experimental: as §1

[4] = test system: Adjuvant arthritis in rats; assay: Adjuvant arthritis in rats (hind foot volume); type: in vivo, Sprague-Dawley rats; conditions: day 1 until day 21
Experimental: Effect of N-(p-hydroxyphenyl)-L-glutamine on Adjuvant arthritis in rats
Sprague-Dawley rats weighing 150 to 180 g were randomized in 6 groups and kept in a controlled evironment for 2 weeks prior to use. They were fed a standard diet and were allowed to drink water freely ad libitum.
On day 0, each rat was injected in the planter region of the right hind paw with 0.05 ml Freund's Complete Adjuvant containing 6 mg/ml of heat killed Mycobacterium butyricum (Difco) in sterile paraffin oil.
The volume of the injected (right) and non-injected (left) feet up to a mark on the tibio-tarsal joint was measured by water over-flow method.
The sensitized rats were dosed subcutaneously from day 1 until day 21 with either 12.5, 25, or 50 mg/kg of N-(p-hydroxyphenyl)-L-glutamine (γ-GHB), 2.5 mg/kg of prednisolone, and vehicle for control group.

[5] = test system: nucleated cells in the spleen; assay: Total number of nucleated cells in the spleen of immunized mice; type: in vivo, mice (ddY); conditions: for Number of nucleated cells (No. of lymphocytes ± S.E.): 5 animals, day 4, untreated 228 ± 18.8
Experimental: Effect of N-(p-hydroxyphenyl)-L-glutamine on the total number of nucleated cells and the plaque forming cells in the spleen
The mice (ddY, 18 to 21 g) were intraperitoneally immunized with 1×10^8 sheep blood cells. The N-(p-hydroxyphenyl)-L-glutamine was administered subcutaneously on day 0, 1, 2 and 3. On day 4, the mice were sacrificed and the plaque forming cells in the spleen were determined according to the modified Cunningham's method (H. Fujiwara et al.; Experimental Method of Immunology Vol. 5, 1475 (1975)).
Total number of the nucleated cells in the spleen were counted after lysing erythrocytes with 0.5% acetic acid.

[6] = test system: plaque forming cells in the spleen; assay: Plaque forming cells in the spleen of mice immunized with sheep blood cells (modified Cunningham's method); type: in vivo, mice (ddY); conditions: for PFC (No. of PFC ± S.E.): 5 animals, day 4, untreated 163 ± 64
[7] = test system: Daudi cells; assay: Growth inhibition of tissue-culture cells (Daudi cells), trypane blue dye exclusion; type: cell-based, human
Experimental: Growth inhibition of tissue-culture cells
2.6×10^5 /ml tissue culture cells (Daudi cells) derived from human lymphocytes in RPMI-1640 medium supplemented with 10% fetal calf serum were incubated with varied concentration of N-(p-hydroxyphenyl)-L-glutamine for 72 hours at 37° C. The number of live cells was determined by the trypane blue dye exclusion test.

[8] = Acute toxicity (mortality 7 days after intraperitoneal administration); type: in vivo, mice; conditions: mouse, in vivo, ip, mice, intraperitoneal
Description: (§2) The varied doses of N-(p-hydroxyphenyl)-L-glutamine in an aqueous 5% sodium carboxymethyl cellulose solution were intraperitoneally administered to the mice. The mortality 7 days after the administration was as follows: […]

[9] = test system: mice; assay: as above; type: in vivo
Description: as §2

[10] = test system: human lymphocytes; assay: Inhibition of blastogenesis of human lymphocytes induced by phytohemagglutinin (PHA), 3H-thymidine uptake; type: cell-based; conditions: for % Inhibition (3H-thymidine uptake by PHA-stimulated lymphocytes): 72 hours
Experimental: Inhibition of the blastogenesis of the human lymphocytes induced by phytohemagglutinin (PHA)
1.5×10^5 human lymphocytes in RPMI-1 640 medium (produced by GIBCO) supplemented with 10 wt. % fetal calf serum were incubated with 0.1 μl of PHA and in the presence or absence of N-(p-hydroxyphenyl)-L-glutamine (total volume: 0.1 ml) in a CO2 incubator at 37° C. for 72 hours. 0.1 μCi of ^3 H-thymidine was pulsed 7 hour before harvesting the cells. The lymphocytes were harvested and the radioactivity incorporated into the cells were counted.

[11] = 12.5, 25 or 50 mg/kg subcutaneously
[12] = 50 mg/kg subcutaneously on day 0, 1, 2 and 3
[13] = 100 mg/kg subcutaneously on day 0, 1, 2 and 3

## N[C@@H](CCC(=O)Nc1ccc(O)cc1)C(=O)O
[1]
  time to rejection of skin graft: 15.0 ± 1.7 days
[2]
  cytotoxic effect on the murine spleen cells (in words): did not exhibit any cytotoxic effect
[3]; concentration 10 (unit inferred)
  viability at 48 h: 83%
[3]; concentration 100 (unit inferred)
  viability at 48 h: 87%
[4]; [11]
  left (non-injected) hind foot swelling (in words): reduced significantly
  right (injected) hind foot swelling (in words): reduced significantly
[5]; 50 mg/kg
  total number of the nucleated cells in the spleen (in words): did not affect
[5]; [12]
  Number of nucleated cells (No. of lymphocytes ± S.E.): 176 ± 13.7 × 10^6 /spleen
[5]; [13]
  Number of nucleated cells (No. of lymphocytes ± S.E.): 226 ± 39.1 × 10^6 /spleen
[6]; 50 mg/kg
  production of plaque forming cells (in words): significantly inhibited
[6]; [12]
  PFC (No. of PFC ± S.E.): 65.6 ± 9.5 × 10^3 /spleen
[6]; [13]
  PFC (No. of PFC ± S.E.): 65.3 ± 14.0 × 10^3 /spleen
[7]; Homo sapiens, Daudi, 40 μg/ml
  inhibition at 40 µg/mL: ~90%
[7]; Homo sapiens, Daudi, 400 μg/ml, 72 hours, read-out: Inhibition (%) (Control equals 100)
  live cell growth (% of control) at 400 µg/mL: 0%
[7]; addition delayed from 24 hours to 48 hours after start of incubation
  growth inhibition with delayed addition (in words): gradually decreased
[7]; present for first 24 hours of 72 hours incubation
  growth inhibition with exposure for first 24 hours only (in words): did not exhibit any growth inhibition
[8]
  LD50 at 168 h: > 5000 mg/kg
[9]; 1.768 g/kg intraperitoneally
  No. of dead mice/No. of treated mice: 0/5
[9]; 2.5 g/kg intraperitoneally
  No. of dead mice/No. of treated mice: 0/5
[9]; 3.535 g/kg intraperitoneally
  No. of dead mice/No. of treated mice: 1/5
[9]; 5 g/kg intraperitoneally
  No. of dead mice/No. of treated mice: 2/5
[9]; 10 g/kg intraperitoneally
  No. of dead mice/No. of treated mice: 1/1
[10]; 40 μg/ml
  inhibition of PHA-induced blastogenesis (in words): complete inhibition
[10]; 40 μg/ml added 0, 12, 24 and 48 hours after PHA stimulation
  inhibition of PHA-induced blastogenesis, delayed addition (in words): almost complete inhibition
[10]; 0.04 μ/ml
  % Inhibition (3H-thymidine uptake by PHA-stimulated lymphocytes): 14%
[10]; 0.4 μ/ml
  % Inhibition (3H-thymidine uptake by PHA-stimulated lymphocytes): 27%
[10]; 4 μ/ml
  % Inhibition (3H-thymidine uptake by PHA-stimulated lymphocytes): 67%
[10]; 40 μ/ml
  % Inhibition (3H-thymidine uptake by PHA-stimulated lymphocytes): 99%

## Sc1ncnc2nc[nH]c12 [6-Mercaptopurine, reference compound]
[5]; 25 mg/kg
  Number of nucleated cells (No. of lymphocytes ± S.E.): 78 ± 9.5 × 10^6 /spleen
[6]; 25 mg/kg
  PFC (No. of PFC ± S.E.): 18.8 ± 7.9 × 10^3 /spleen

## C[C@]12C=CC(=O)C=C1CC[C@@H]1[C@@H]2[C@@H](O)C[C@@]2(C)[C@H]1CC[C@]2(O)C(=O)CO [prednisolone, reference compound]
[4]; 2.5 mg/kg subcutaneously
  left (non-injected) hind foot swelling (in words): reduced significantly
  right (injected) hind foot swelling (in words): reduced significantly
